Data on 25 molecules can be found in patent US20150175599A1, “FAAH Inhibitors” (Ironwood Pharmaceuticals, Inc., priority 2010, published 2015).

Molecules are shown by their SMILES.

The data set can be described thus: Pharmacokinetic study, plasma level 2 hours after oral dosing in rats. The class given is in vivo. The protocol:
Pharmacokinetic studies were conducted to determine absorption and distribution profiles of the disclosed compounds which were orally administered to rats.
Compounds were formulated in a 1% DMA/99% Vitamin E TPGS vehicle. Prepared compounds were dosed via oral gavage (PO). Following the appropriate pretreatment time of 2 hours, rats were anesthetized with isoflurane gas. Blood was collected into tubes containing EDTA via retro-orbital eye bleed. Whole blood was spun in a micro-centrifuge at approximately 13,000 rpm for 5 minutes at room temperature. Separated plasma was subsequently aliquoted into eppendorf tubes. Samples were stored at −80° C. until prepped for analysis.
Plasma samples were thawed and the required amount of plasma for standards, blanks and dilutions were made. The dilutions were prepared before plating. Preparation of crash solution included cold acetonitrile+0.1% formic acid and 25 ng/mL of a FAAH inhibitor used as internal standard. solvent standards of the FAAH inhibitor being studied were preparation at 10, 30, 100, 300, 1000, 3000, 10000, 30000, 100000, and 300000 ng/mL in DMSO. Then a plasma standard curve was generated from the solvent standards (final concentrations of standards in plasma were: 0.1, 0.3, 1, 3, 10, 30, 100, 300, 1000, 3000 ng/mL). 50 μL of each plasma sample/dilution, standard, or blank was transferred into 96-well plates. To each well, 200 μL of cold crash solution was added. The plate was covered and gently vortexed. The plate was centrifuged at 3500 rpm, 4° C. for 10 min. 200 μL of each supernatant was transferred into new plates. The plates were dried under nitrogen in a TurboVap at 55° C. The sample in each well was re-suspended with 100 μL of 30% acetonitrile, covered and vortexed gently. The well solutions were analyzed by the LC/MS/MS conditions and specifications below.
HPLC column was a Clipeus C8, 2.1×30 mm, 5 μm, with Basic 8 guard column using 20 μL injections. Mobile phase used was mobile phase A: 0.1% Formic Acid in water and mobile phase B: 0.1% Formic Acid in 85:10:5 ACN:IPA:H2O. The flow rate for the run was 0.5 mL/min and the gradient for the 4 minute total run time was: 0.0 minutes
As to `COc1cc(NC(=O)C(=O)c2c(C)n(Cc3ccc(Cl)cc3)c3ccncc23)ccn1` [Compound 37, 2-(1-(4-chlorobenzyl)-2-methyl-1H-pyrrolo[3,2-c]pyridin-3-yl)-N-(2-methoxypyridin-4-yl)-2-oxoacetamide], the “2 hr plasma level-ng/mL (rat, 10 mg/kg PO, 2 hr)” value (“2 hr plasma level-ng/mL” below) was “C (C = between 100 nM and 1000 nM)”.

Take `COc1cnc2c(c1)c(C(=O)C(=O)Nc1ccnc(OC)c1)c(C)n2Cc1ccc(Cl)cc1` [Compound 38, 2-(1-(4-chlorobenzyl)-5-methoxy-2-methyl-1H-pyrrolo[2,3-b]pyridin-3-yl)-N-(2-methoxypyridin-4-yl)-2-oxoacetamide]: the “2 hr plasma level-ng/mL” value was “C (C = between 100 nM and 1000 nM)”. As to `COc1cnc2c(c1)c(C(=O)C(=O)Nc1ccnc(OC)c1)c(C)n2Cc1ccc(Cl)cn1` [Compound 41, 2-(1-((5-chloropyridin-2-yl)methyl)-5-methoxy-2-methyl-1H-pyrrolo[2,3-b]pyridin-3-yl)-N-(2-methoxypyridin-4-yl)-2-oxoacetamide], the “2 hr plasma level-ng/mL” value was “D (D = greater than 1000 nM)”.

Take `COc1cnc2c(c1)c(C(=O)C(=O)Nc1ccnc(OC)c1)c(C)n2Cc1ccc(Cl)cc1Cl` [Compound 42, 2-(1-(2,4-dichlorobenzyl)-5-methoxy-2-methyl-1H-pyrrolo[2,3-b]pyridin-3-yl)-N-(2-methoxypyridin-4-yl)-2-oxoacetamide]: the “2 hr plasma level-ng/mL” value was “C (C = between 100 nM and 1000 nM)”. The result for `COc1ccc(Cn2c(C)c(C(=O)C(=O)Nc3ccnc(OC)c3)c3cc(OC)ccc32)nc1` [Compound 43, 2-(5-methoxy-1-((5-methoxypyridin-2-yl)methyl)-2-methyl-1H-indol-3-yl)-N-(2-methoxypyridin-4-yl)-2-oxoacetamide] reads “D (D = greater than 1000 nM)”; that for `COc1cc(NC(=O)C(=O)c2c(C)n(Cc3ccc(Cl)cc3)c3cc(OC)c(OC)cc23)ccn1` [Compound 44, 2-(1-(4-chlorobenzyl)-5,6-dimethoxy-2-methyl-1H-indol-3-yl)-N-(2-methoxypyridin-4-yl)-2-oxoacetamide], “C (C = between 100 nM and 1000 nM)”; that for `COc1cc(NC(=O)C(=O)c2c(C)n(Cc3ccc(Cl)cc3)c3cccc(OC)c23)ccn1` [Compound 45, 2-(1-(4-chlorobenzyl)-4-methoxy-2-methyl-1H-indol-3-yl)-N-(2-methoxypyridin-4-yl)-2-oxoacetamide], “C (C = between 100 nM and 1000 nM)”.

Turning to `COc1ccc2c(c1)c(C(=O)C(=O)Nc1ccnc(OC)n1)c(C)n2Cc1ccc(Cl)cc1` [Compound 46, 2-(1-(4-chlorobenzyl)-5-methoxy-2-methyl-1H-indol-3-yl)-N-(2-methoxypyrimidin-4-yl)-2-oxoacetamide], the “2 hr plasma level-ng/mL” value is “C (C = between 100 nM and 1000 nM)”. For `COc1ccc2c(c1)c(C(=O)C(=O)Nc1cc(Cl)nc(OC)c1)c(C)n2Cc1ccc(Cl)cc1` [Compound 47, N-(2-chloro-6-methoxypyridin-4-yl)-2-(1-(4-chlorobenzyl)-5-methoxy-2-methyl-1H-indol-3-yl)-2-oxoacetamide], the “2 hr plasma level-ng/mL” value is “C (C = between 100 nM and 1000 nM)”.

Take `COc1ccc2c(C(=O)C(=O)Nc3ccnc(OC)c3)c(C)n(Cc3ccc(Cl)cc3)c2c1` [Compound 48, 2-(1-(4-chlorobenzyl)-6-methoxy-2-methyl-1H-indol-3-yl)-N-(2-methoxypyridin-4-yl)-2-oxoacetamide]: the “2 hr plasma level-ng/mL” value was “C (C = between 100 nM and 1000 nM)”. With `COc1ccc2c(c1)c(C(=O)C(=O)Nc1cc(OC)ncc1F)c(C)n2Cc1ccc(Cl)cc1` [Compound 54, 2-(1-(4-chlorobenzyl)-5-methoxy-2-methyl-1H-indol-3-yl)-N-(5-fluoro-2-methoxypyridin-4-yl)-2-oxoacetamide], the “2 hr plasma level-ng/mL” value was “A (A = Less than 10 nM)”. On to `COc1cc(NC(=O)C(=O)c2c(C)n(Cc3ccc(Cl)cc3)c3cc(Cl)c(OC)cc23)ccn1` [Compound 55, 2-(6-chloro-1-(4-chlorobenzyl)-5-methoxy-2-methyl-1H-indol-3-yl)-N-(2-methoxypyridin-4-yl)-2-oxoacetamide], for which the “2 hr plasma level-ng/mL” value was “C (C = between 100 nM and 1000 nM)”. Turning to `COc1cc(NC(=O)C(=O)c2c(C)n(Cc3ccc(Cl)cc3)c3ccc(OC)c(F)c23)ccn1` [Compound 59, 2-(1-(4-chlorobenzyl)-4-fluoro-5-methoxy-2-methyl-1H-indol-3-yl)-N-(2-methoxypyridin-4-yl)-2-oxoacetamide], the “2 hr plasma level-ng/mL” value was “C (C = between 100 nM and 1000 nM)”.

Consider `COc1cc(NC(=O)C(=O)c2c(C)n(Cc3ccc(Cl)cn3)c3cc(Cl)c(OC)cc23)ccn1` [Compound 60, 2-(6-chloro-1-((5-chloropyridin-2-yl)methyl)-5-methoxy-2-methyl-1H-indol-3-yl)-N-(2-methoxypyridin-4-yl)-2-oxoacetamide], for which the “2 hr plasma level-ng/mL” value was “D (D = greater than 1000 nM)”. With `COc1cc(NC(=O)C(=O)c2c(C)n(Cc3ccc(Cl)cn3)c3ccc(C)cc23)ccn1` [Compound 61, 2-(1-((5-chloropyridin-2-yl)methyl)-2,5-dimethyl-1H-indol-3-yl)-N-(2-methoxypyridin-4-yl)-2-oxoacetamide], the “2 hr plasma level-ng/mL” value is “D (D = greater than 1000 nM)”. In the case of `COc1cc(NC(=O)C(=O)c2c(C)n(Cc3ccc(Cl)cn3)c3ccc(Cl)cc23)ccn1` [Compound 63, 2-(5-chloro-1-((5-chloropyridin-2-yl)methyl)-2-methyl-1H-indol-3-yl)-N-(2-methoxypyridin-4-yl)-2-oxoacetamide], the “2 hr plasma level-ng/mL” value was “C (C = between 100 nM and 1000 nM)”.

`COc1cc(NC(=O)C(=O)c2c(C)n(Cc3ccc(Cl)cn3)c3cc(F)c(OC)cc23)ccn1` [Compound 64, 2-(1-((5-chloropyridin-2-yl)methyl)-6-fluoro-5-methoxy-2-methyl-1H-indol-3-yl)-N-(2-methoxypyridin-4-yl)-2-oxoacetamide]: the “2 hr plasma level-ng/mL” value was “C (C = between 100 nM and 1000 nM)”.

On to `COc1cc(NC(=O)C(=O)c2c(C)n(Cc3ccc(Cl)cn3)c3ccc(N(C)C)cc23)ccn1` [Compound 66, 2-(1-((5-chloropyridin-2-yl)methyl)-5-(dimethylamino)-2-methyl-1H-indol-3-yl)-N-(2-methoxypyridin-4-yl)-2-oxoacetamide], for which the “2 hr plasma level-ng/mL” value is “D (D = greater than 1000 nM)”. Consider `COc1cc(NC(=O)C(=O)c2c(C)n(Cc3ccc(Cl)cn3)c3cc(OC)c(Cl)cc23)ccn1` [Compound 67, 2-(5-chloro-1-((5-chloropyridin-2-yl)methyl)-6-methoxy-2-methyl-1H-indol-3-yl)-N-(2-methoxypyridin-4-yl)-2-oxoacetamide], for which the “2 hr plasma level-ng/mL” value is “D (D = greater than 1000 nM)”. As for `COc1cc(NC(=O)C(=O)c2c(C)n(Cc3ccc(Cl)cn3)c3ccccc23)ccn1` [Compound 68, 2-(1-((5-chloropyridin-2-yl)methyl)-2-methyl-1H-indol-3-yl)-N-(2-methoxypyridin-4-yl)-2-oxoacetamide], the entry is “D (D = greater than 1000 nM)”; as for `COc1ccc(Cn2c(C)c(C(=O)C(=O)Nc3ccnc(OC)c3)c3cc(C)ccc32)nc1` [Compound 69, 2-(1-((5-methoxypyridin-2-yl)methyl)-2,5-dimethyl-1H-indol-3-yl)-N-(2-methoxypyridin-4-yl)-2-oxoacetamide], “C (C = between 100 nM and 1000 nM)”; as for `COc1cc(NC(=O)C(=O)c2c(C)n(Cc3ncc(Cl)cc3Cl)c3cc(Cl)c(OC)cc23)ccn1` [Compound 70, 2-(6-chloro-1-((3,5-dichloropyridin-2-yl)methyl)-5-methoxy-2-methyl-1H-indol-3-yl)-N-(2-methoxypyridin-4-yl)-2-oxoacetamide], “C (C = between 100 nM and 1000 nM)”. Take `Cc1c(C(=O)C(=O)Nc2cccc(Cl)c2)c2cc(O)ccc2n1Cc1ccc(Cl)cc1` [Compound 71, 2-(1-(4-chlorobenzyl)-5-hydroxy-2-methyl-1H-indol-3-yl)-N-(3-chlorophenyl)-2-oxoacetamide]: the “2 hr plasma level-ng/mL” value was “A (A = Less than 10 nM)”.

As for `COc1cc(NC(=O)C(=O)c2c(C)n(Cc3ccc(Cl)cc3)c3cc(F)c(OC)cc23)ccn1` [Compound 72, 2-(1-(4-chlorobenzyl)-6-fluoro-5-methoxy-2-methyl-1H-indol-3-yl)-N-(2-methoxypyridin-4-yl)-2-oxoacetamide], the “2 hr plasma level-ng/mL” value was “C (C = between 100 nM and 1000 nM)”. As to `COc1cc(NC(=O)C(=O)c2c(C)n(Cc3ccc(Cl)cc3)c3cc(C)c(OC)cc23)ccn1` [Compound 74, 2-(1-(4-chlorobenzyl)-5-methoxy-2,6-dimethyl-1H-indol-3-yl)-N-(2-methoxypyridin-4-yl)-2-oxoacetamide], the “2 hr plasma level-ng/mL” value was “C (C = between 100 nM and 1000 nM)”.
